Laboratory results as given in patent US7244692B2, “Substituted benzoylcyclohexane diones for use as herbicides” (Bayer Aktiengesellschaft, priority 1999, dated 2007).
Read-outs that look alike come from different tables or passages of the source. Each block holds one molecule with its values, some of them ahead of it.

Tests used:
[1] = logP determination by HPLC, reverse-phase column (C 18), EEC Directive 79/831 Annex V.A8; assay type: physicochemical
Protocol: Temperature: 43° C. • (a) Mobile phases for the determination in the acidic range: 0.1% aqueous phosphoric acid, acetonitrile; linear gradient from 10% acetonitrile to 90% acetonitrile—the corresponding test results in Table 1 are labelled ^a). • (b) Mobile phases for the determination in the neutral range: 0.01 molar aqueous phosphate buffer solution, acetonitrile; linear gradient from 10% acetonitrile to 90% acetonitrile—the corresponding test results in Table 1 are labelled ^b).

[2] = tested on: weeds; test: Pre-Emergence Test (Example A); assay type: in vivo; details: soil sprayed 24 hours after sowing, rated after three weeks
Protocol: (§1) • Solvent: 5 parts by weight of acetone • Emulsifier: 1 part by weight of alkylaryl polyglycol ether
(§2) To produce a suitable preparation of active compound, 1 part by weight of active compound is mixed with the stated amount of solvent, the stated amount of emulsifier is added and the concentrate is diluted with water to the desired concentration.
Seeds of the test plants are sown in normal soil. After 24 hours, the soil is sprayed with the preparation of active compound such that the particular amount of active compound desired is applied per unit area. The concentration of active compound in the spray liquor is chosen such that the particular amount of active compound desired is applied in 1000 litres of water per hectare.
After three weeks, the degree of damage to the plants is rated in % damage in comparison to the development of the untreated control. The figures denote: • 0%=no effect (like untreated control) • 100%=total destruction

[3] = tested on: weeds; test: Post-Emergence Test (Example B); assay type: in vivo; details: test plants of 5-15 cm sprayed, rated after three weeks
Protocol: as §1, §2
Test plants of a height of 5-15 cm are sprayed with the preparation of active compound such that the particular amounts of active compound desired are applied per unit area. The concentration of the spray liquor is chosen such that the particular amounts of active compound desired are applied in 1000 l of water/ha.
After three weeks, the degree of damage to the plants is rated in % damage in comparison to the development of the untreated control.
The figures denote: • 0%=no effect (like untreated control) • 100%=total destruction

[4] = labelled a): acidic range, 0.1% aqueous phosphoric acid/acetonitrile, linear gradient 10% to 90% acetonitrile, 43° C.
[5] = no a)/b) label printed, mobile phase not given

Compound: CCCN1CCNC1=O [(VI-5)]
logP [1]: 0.55^a)

Compound: CCCN1CCCNC1=O [(VI-15)]
logP [1]: logP = 0.76^a)

Compound: CCN1CCCCNC1=O [(VI-30)]
logP [1]: logP = 1.09

Compound: CN1CCN(Cc2c(Cl)ccc(C(=O)C3C(=O)CCCC3=O)c2Cl)C1=O [Example 1, 2-[2,4-dichloro-3-[(3-methyl-2-oxo-imidazolidin-1-yl)-methyl]-benzoyl]-1,3-cyclohexanedione]
activity against weeds (degree of damage) [2]: strong activity against weeds | activity against weeds (degree of damage) [3]: strong activity against weeds

Compound: CC1CC(=O)C(C(=O)c2ccc(Cl)c(CN3CCCN(C)C3=O)c2Cl)C(=O)C1 (stereo not shown) [Example 2]
logP [1, 4]: logP = 2.55^a) | activity against weeds (degree of damage) [2]: strong activity against weeds | activity against weeds (degree of damage) [3]: strong activity against weeds

Compound: CN1CCCN(Cc2c(Cl)ccc(C(=O)C3C(=O)CC(C)(C)CC3=O)c2Cl)C1=O [Example 3]
logP [1, 4]: logP = 2.79^a) | activity against weeds (degree of damage) [2]: strong activity against weeds | activity against weeds (degree of damage) [3]: strong activity against weeds

Compound: CN1CCCN(Cc2c(Cl)ccc(C(=O)C3C(=O)CCC(C)(C)C3=O)c2Cl)C1=O (stereo not shown) [Example 4]
logP [1, 4]: logP = 2.89^a) | activity against weeds (degree of damage) [2]: strong activity against weeds | activity against weeds (degree of damage) [3]: strong activity against weeds

Compound: CC(C)C1CC(=O)C(C(=O)c2ccc(Cl)c(CN3CCCN(C)C3=O)c2Cl)C(=O)C1 (stereo not shown) [Example 5]
logP [1, 4]: logP = 3.22^a) | activity against weeds (degree of damage) [3]: strong activity against weeds

Compound: CN1CCCN(Cc2c(Cl)ccc(C(=O)C3C(=O)CC(c4ccccc4)CC3=O)c2Cl)C1=O (stereo not shown) [Example 6]
logP [1, 4]: logP = 3.21^a) | activity against weeds (degree of damage) [3]: strong activity against weeds

Compound: CC1CC(=O)C(C(=O)c2ccc(Cl)c(CN3CCN(C)C3=O)c2Cl)C(=O)C1 (stereo not shown) [Example 7]
logP [1, 4]: logP = 2.43^a) | activity against weeds (degree of damage) [2]: strong activity against weeds | activity against weeds (degree of damage) [3]: strong activity against weeds

Compound: CN1CCN(Cc2c(Cl)ccc(C(=O)C3C(=O)CC(C)(C)CC3=O)c2Cl)C1=O [Example 8]
logP [1, 4]: logP = 2.67^a) | activity against weeds (degree of damage) [2]: strong activity against weeds | activity against weeds (degree of damage) [3]: strong activity against weeds

Compound: CN1CCN(Cc2c(Cl)ccc(C(=O)C3C(=O)CCC(C)(C)C3=O)c2Cl)C1=O (stereo not shown) [Example 9]
logP [1, 4]: logP = 2.75^a) | activity against weeds (degree of damage) [2]: strong activity against weeds | activity against weeds (degree of damage) [3]: strong activity against weeds

Compound: CC(C)C1CC(=O)C(C(=O)c2ccc(Cl)c(CN3CCN(C)C3=O)c2Cl)C(=O)C1 (stereo not shown) [Example 10]
logP [1, 4]: logP = 3.09^a) | activity against weeds (degree of damage) [3]: strong activity against weeds

Compound: CN1CCN(Cc2c(Cl)ccc(C(=O)C3C(=O)CC(c4ccccc4)CC3=O)c2Cl)C1=O (stereo not shown) [Example 11]
logP [1, 4]: logP = 3.10^a) | activity against weeds (degree of damage) [3]: strong activity against weeds

Compound: CCN1CCN(Cc2c(Cl)ccc(C(=O)C3C(=O)CC(C)CC3=O)c2Cl)C1=O (stereo not shown) [Example 12]
logP [1, 4]: logP = 2.71^a) | activity against weeds (degree of damage) [2]: strong activity against weeds | activity against weeds (degree of damage) [3]: strong activity against weeds

Compound: CCN1CCN(Cc2c(Cl)ccc(C(=O)C3C(=O)CCCC3=O)c2Cl)C1=O [Example 13]
logP [1, 4]: logP = 2.37^a) | activity against weeds (degree of damage) [2]: strong activity against weeds | activity against weeds (degree of damage) [3]: strong activity against weeds

Compound: CCN1CCN(Cc2c(Cl)ccc(C(=O)C3C(=O)CC(C)(C)CC3=O)c2Cl)C1=O [Example 14]
logP [1, 4]: logP = 2.96^a) | activity against weeds (degree of damage) [3]: strong activity against weeds

Compound: CCN1CCN(Cc2c(Cl)ccc(C(=O)C3C(=O)CCC(C)(C)C3=O)c2Cl)C1=O (stereo not shown) [Example 15]
logP [1]: logP = 3.07^a)

Compound: CCN1CCN(Cc2c(Cl)ccc(C(=O)C3C(=O)CC(C(C)C)CC3=O)c2Cl)C1=O (stereo not shown) [Example 16]
logP [1, 4]: logP = 3.40^a) | activity against weeds (degree of damage) [3]: strong activity against weeds

Compound: CCN1CCN(Cc2c(Cl)ccc(C(=O)C3C(=O)CC(c4ccccc4)CC3=O)c2Cl)C1=O (stereo not shown) [Example 17]
logP [1, 4]: logP = 3.38^a) | activity against weeds (degree of damage) [3]: strong activity against weeds

Compound: COc1c(C(=O)C2C(=O)CCCC2=O)ccc(Cl)c1CN1CCCN(C)C1=O [Example 18]
logP [1, 4]: logP = 2.05^a) | activity against weeds (degree of damage) [2]: strong activity against weeds | activity against weeds (degree of damage) [3]: strong activity against weeds

Compound: COc1c(C(=O)C2C(=O)CCCC2=O)ccc(Cl)c1CN1CCN(C)C1=O [Example 19]
logP [1]: logP = 2.00^a)

Compound: CN1CCN(Cc2c(Cl)ccc(C(=O)C3C(=O)CC4(CCC4)CC3=O)c2Cl)C1=O [Example 20]
logP [1]: logP = 2.83^a)

Compound: CCN1CCN(Cc2c(Cl)ccc(C(=O)C3C(=O)CC4(CCC4)CC3=O)c2Cl)C1=O [Example 21]
logP [1]: logP = 3.15^a)

Compound: CN1CCN(Cc2c(S(C)(=O)=O)ccc(C(=O)C3C(=O)CCCC3=O)c2Cl)C1=O [Example 22]
logP [1]: logP = 1.70^a)

Compound: CCN1CCN(Cc2c(S(C)(=O)=O)ccc(C(=O)C3C(=O)CCCC3=O)c2Cl)C1=O [Example 23]
logP [1]: logP = 1.91^a)

Compound: CN1CCN(Cc2c(F)ccc(C(=O)C3C(=O)CCCC3=O)c2Cl)C1=O [Example 24]
logP [1, 4]: logP = 1.96^a) | activity against weeds (degree of damage) [2]: strong activity against weeds | activity against weeds (degree of damage) [3]: strong activity against weeds

Compound: CCN1CCN(Cc2cc(C(F)(F)F)ccc2C(=O)C2C(=O)CCCC2=O)C1=O [Example 25]
logP [1]: logP = 2.68^a)

Compound: CN1CCCN(Cc2c(S(C)(=O)=O)ccc(C(=O)C3C(=O)CCCC3=O)c2Cl)C1=O [Example 41]
logP [1]: logP = 1.73^a)

Compound: CCCN1CCN(Cc2c(Cl)ccc(C(=O)C3C(=O)CCCC3=O)c2Cl)C1=O [Example 46]
logP [1]: logP = 2.69^a)

Compound: CCCCN1CCN(Cc2c(Cl)ccc(C(=O)C3C(=O)CCCC3=O)c2Cl)C1=O [Example 47]
logP [1]: logP = 3.08^a)

Compound: CC(C)CN1CCN(Cc2c(Cl)ccc(C(=O)C3C(=O)CCCC3=O)c2Cl)C1=O [Example 48]
logP [1]: logP = 3.03^a)

Compound: CN1CCCN(Cc2cc(C(F)(F)F)ccc2C(=O)C2C(=O)CCCC2=O)C1=O [Example 49]
logP [1]: logP = 2.59^a)

Compound: CCN1CCN(Cc2c(F)ccc(C(=O)C3C(=O)CCCC3=O)c2Cl)C1=O [Example 50]
logP [1]: logP = 2.18^a)

Compound: CN1CCN(Cc2cc(C(F)(F)F)ccc2C(=O)C2C(=O)CCCC2=O)C1=O [Example 51]
logP [1]: logP = 2.41^a)

Compound: CCN1CCN(Cc2c(Cl)ccc(C(=O)OC)c2Cl)C1=O [IV-2]
logP [1, 4]: logP = 2.26^a)

Compound: CCN1CCN(Cc2c(S(C)(=O)=O)ccc(C(=O)OC)c2Cl)C1=O [IV-3]
logP [1, 4]: logP = 1.55^a)

Compound: COC(=O)c1ccc(S(C)(=O)=O)c(CN2CCN(C)C2=O)c1Cl [IV-4]
logP [1, 4]: logP = 1.55^a)

Compound: COC(=O)c1ccc(Cl)c(CN2CCN(C)C2=O)c1OC [IV-5]
logP [1, 4]: logP = 1.92^a)

Compound: COC(=O)c1ccc(Cl)c(CN2CCCN(C)C2=O)c1Cl [IV-6]
logP [1, 4]: logP = 2.07^a)

Compound: COC(=O)c1ccc(Cl)c(CN2CCCN(C)C2=O)c1OC [IV-10]
logP [1, 4]: logP = 2.03^a)

Compound: CCN1CCN(Cc2cc(C(F)(F)F)ccc2C(=O)OC)C1=O [IV-11]
logP [1, 4]: logP = 2.62^a)

Compound: CCCN1CCN(Cc2c(Cl)ccc(C(=O)OC)c2Cl)C1=O [IV-12]
logP [1, 5]: logP = 2.62

Compound: COC(=O)c1ccc(Cl)c(CN2CCN(C(C)C)C2=O)c1Cl [IV-13]
logP [1, 5]: logP = 2.56

Compound: CCCCN1CCN(Cc2c(Cl)ccc(C(=O)OC)c2Cl)C1=O [IV-15]
logP [1, 5]: logP = 3.0

Compound: COC(=O)c1ccc(Cl)c(CN2CCN(CC(C)C)C2=O)c1Cl [IV-16]
logP [1, 5]: logP = 2.95

Further lines, results first:

logP [1]: logP = 2.33^a)
Compound: COC(=O)c1ccc(S(C)(=O)=O)c(CBr)c1Cl [V-2]

logP [1]: logP = 1.87^a)
Compound: COC(=O)c1ccc(S(C)(=O)=O)cc1CBr [V-6]
